According to US20160279164A1, “High-Molecular Weight Conjugate Of Resorcinol Derivatives” (Nippon Kayaku Kabushiki Kaisha, priority 2006, published 2016):

Tested on: mouse colon cancer Colon26
Assay: Anti-tumor effect on mice transplanted with the mouse colon cancer Colon26
Type: in vivo
Conditions: 5 consecutive days, female CDF1 mice
Text: Tumor of mouse colon cancer, Colon26, maintained by serial subcutaneous subculture in BALB/cA mice, was minced into about 2-mm square blocks, and the blocks were transplanted subcutaneously on the dorsal part of a female CDF1 mice with a trocar. On the 7th day after tumor transplantation, the high-molecular weight conjugate of a resorcinol derivative (compound 1) of the present invention, and as a control, the included resorcinol derivative, 5-(2,4-dihydroxy-5-isopropyl-phenyl)-4-(4-methoxy-phenyl)-2,4-dihydro-[1,2,4]triazol-3-one), were administered intravenously to the mouse tail vein. Compound 1 of the present invention was dissolved in a 5% glucose injectable solution, and was administered once. The resorcinol derivative (the included compound) used as the control, was dissolved in DMSO, and TWEEN80 was added thereto, and then the mixture was diluted with a 5% glucose injectable solution. The dilution was administered once a day for 5 consecutive days. After the administration, the major diameter (L mm) and the minor diameter (W mm) of the tumor were measured regularly, and the tumor volume was calculated by the formula: (L×W^2)/2. Based on the tumor volume of the administration initiation day, the average relative tumor volume for each measurement day was determined (Table 1).

`COc1ccc(-n2c(-c3cc(C(C)C)c(O)cc3O)n[nH]c2=O)cc1` [Included compound, 5-(2,4-dihydroxy-5-isopropyl-phenyl)-4-(4-methoxy-phenyl)-2,4-dihydro-[1,2,4]triazol-3-one] was tested, and the “average relative tumor volume” value (day 0 after administration, 50 mg/kg/day i.v.) was 1.0, the “average relative tumor volume” value (day 0 after administration, 100 mg/kg/day i.v.) was 1.0 and the “average relative tumor volume” value (day 2 after administration, 50 mg/kg/day i.v.) was 1.6. For the same compound, the “average relative tumor volume” value (day 2 after administration, 100 mg/kg/day i.v.) was 1.1, the “average relative tumor volume” value (day 3 after administration, 50 mg/kg/day i.v.) was 1.6 and the “average relative tumor volume” value (day 3 after administration, 100 mg/kg/day i.v.) was 0.7. For the same compound, the “average relative tumor volume” value (day 5 after administration, 50 mg/kg/day i.v.) was 2.5, the “average relative tumor volume” value (day 5 after administration, 100 mg/kg/day i.v.) was 1.0 and the “average relative tumor volume” value (day 7 after administration, 50 mg/kg/day i.v.) was 2.5. For the same compound, the “average relative tumor volume” value (day 7 after administration, 100 mg/kg/day i.v.) was 3.3, the “average relative tumor volume” value (day 9 after administration, 50 mg/kg/day i.v.) was 6.7 and the “average relative tumor volume” value (day 9 after administration, 100 mg/kg/day i.v.) was 5.0. The “average relative tumor volume” value (day 12 after administration, 50 mg/kg/day i.v.) was 10, the “average relative tumor volume” value (day 12 after administration, 100 mg/kg/day i.v.) was 11 and the “average relative tumor volume” value (day 14 after administration, 50 mg/kg/day i.v.) was 13. The “average relative tumor volume” value (day 14 after administration, 100 mg/kg/day i.v.) was 12.
